Assay results reported in patent publication US20100099109A1, “Methods for Analyzing Drug Response” (NODALITY, INC., A DELAWARE CORPORATION, priority 2008, published 2010).
“Also recorded” adds a separate entry of the source.

Assays:
Ramos cells = experiment: Mylotarg exposure, multiparameter flow cytometry of DNA damage and cell cycle; format: cell-based
Text: (§1) ATM activity also phosphorylates Chk2 and p53. […] Cyclin B1 is produced during the G2 phase of the cell cycle and its accumulation drives the cell cycle into M phase. Therefore, low levels of Cyclin B1 mark G1 and S phases, high levels mark G2 phase, and higher levels mark M phase. Histone H3 (S28) becomes phosphorylated in M phase, making p-Histone H3(S28) a useful marker of cells in M phase and not G2. It is also possible to monitor the G2/M phases of the cell cycle by measuring the phosphorylation status of Cdk1, previously known as Cdc2, a cyclin-dependent protein kinase that controls the cell cycle entry from G2 to M phase. An inhibitory phosphorylation on Cdk1 is removed by CDC25C in the M phase transition, allowing G2 cells to be distinguished from M cells based on levels of p-Cdk1. […] Treating cells with the microtubule polymerization inhibitor Nocodazole induces cells cycle arrest in M phase without DNA damage.
The experimental measurements included forward and side scatter, the use of viability dyes (amine aqua and propidium iodide (PI)), and determination of cell cycle and apoptosis by measuring DNA content with DRAQ5. Additionally, cell cycle progression was measured by determining levels of cyclin B1, phosphorylated histone H3, and phosphorylated CDK-1. All these determinations were made in freshly thawed as well as in cultured cycling cells. […]

primary AML cell sample = experiment: Mylotarg response signatures (DNA damage response by p-CHK2/p-H2AX; apoptosis by cleaved PARP, FSC and viability dyes), flow cytometry; format: cell-based, human
Protocol: The present illustrative example represents how to analyze cells in one embodiment of the present invention. There are several steps in the process, such as treatment with modulator, incubation with antibodies, and processing sample for acquisition of cells on the cytometer. Treatment with modulator(s) can start with thawed cryopreserved cells and end with cells fixed in PFA and permeabilized in methanol. Then the cells can be incubated with an antibody directed to a particular protein of interest and then analyzed using a flow cytometer. A protocol similar to the following was used to analyze AML cells from patient samples. The materials and methods described in this example can be used and/or were used in the other examples described below.
Cell thawing and live/dead staining: Cells are thawed_in a 37° C. water bath, gently resuspend in the vial, and transferred to a 15 mL conical tube. The 15 mL tube is centrifuged at 930 RPM (200×g) for 8 minutes at room temperature. The supernatant is then aspirated, and the pellet is gently resuspended in 1 mL media A. The cell suspension is filtered through a 70 um cell strainer into a new 15 mL tube. The cell strainer is then rinsed with 1 mL media A and another 12 mL of media A into the 15 mL tube. Collected cells are then mixed into an even suspension. A 20 μl, aliquot of this suspension is immediately transferred into a 96-well plate containing 180 μl, PBS+4% FBS+CD45 Alexa 700+PI to determine cell count and viability post spin. After the determination, the 15 mL tubes are centrifuged at 930 RPM (200×g) for 8 minutes at room temperature. The resulting supernatant is aspirated, and the cells are gently resuspended in 4 mL PBS+4 μl, Amine Aqua (another equivalent viability dye can be used instead) and incubated for 15 min in a 37° C. incubator. 10 mL RPMI+1% FBS are added to the cell suspension, followed by inversion mixing. The 15 mL tubes are centrifuged at 930 RPM (200×g) for 8 minutes at room temperature. The stained cells are then resuspended in Media A at the desired cell concentration (1.25×10^6/mL). • a. Samples with low numbers of cells (<18.5×10^6) are resuspend in up to 15 mL of media. • b. For samples with high numbers of cells (>18.5×10^6), the volume is raised to 10 mL with media A and the desired volume is transferred to a new 15 mL tube, adjusting the cell concentration to 1.25×10^6 cells/mL. 1.6 mL of the above cell suspension are then transferred into wells of a multi-well plate, from which 80 ul are distributed into each well of a subsequent plate. Plates are covered with a lid (Nunc) and placed in a 37° C. incubator for 2 hours to rest.
Treatment of Cells with a Modulator: A concentration for each stimulant that is five fold (5×) more than the final concentration is prepared using Media A as diluent. The 5× stimulants are arrayed in a standard 96 well v-bottom plate that correspond to the wells on the plate with cells to be stimulated. Fixative is prepared by dilution of stock 16% paraformaldehyde with PBS to a concentration that is 1.5×, then placed in a 37° C. water bath. Once the plated cells have completed their incubation, the plate(s) are taken out of the incubator and place in a 37° C. water bath next to the pipette apparatus. Prior to addition of stimulant, each plate of cells is taken from the water bath and gently swirled to resuspend any settled cells. The stimulant is pipetted into the cell plate, which is then held over a vortexer set to “7” and mixed for 5 seconds, and followed by the return of the deep well plate to the water bath.
Fixing Cells: 200 μL of the fixative solution (final concentration is 1.6%) is dispensed into wells and then mixed on the titer plate shaker on high for 5 seconds. The plate is then covered with foil sealer and floated in 37° C. water bath for 10 min, followed by a 6 min spin at 2000 rpm at room temperature.

U937 cell line = experiment: Mylotarg/Nocodazole exposure, multiparameter flow cytometry of DNA damage, cell cycle and apoptosis; format: cell-based
Text: as §1
(§2) The experimental measurements included forward and side scatter, the use of viability dyes (amine aqua and propidium iodide (PI)), and determination of cell cycle and apoptosis by measuring DNA content with DRAQ5. Additionally, cell cycle progression was measured by determining levels of cyclin B1, phosphorylated histone H3, and phosphorylated CDK-1. All these determinations were made in freshly thawed as well as in cultured cycling cells.
(§3) After incubation with fluorochrome-conjugated antibody panels that recognized: p-H2AX, p-Chk2, p-ATM, p-53, cleaved PARP and cleaved caspase 3, cells were processed for cytometry as described above.

[1] = tested on: Mylotarg sensitive cell lines; experiment: Mylotarg exposure and modulated signaling in sensitive cell lines; format: cell-based
Protocol: as §2, §3
(§4) Experiments were conducted in which cell lines were exposed for 5-15 minutes to growth factors and cytokines, after which cells were fixed, permeabilized and incubated with panels of fluorochrome-conjugated antibody panels that recognized intracellular signaling molecules. After processing, cells were acquired on the cytometer.

KG-1 cells = experiment: Mylotarg exposure, multiparameter flow cytometry of DNA damage, cell cycle and apoptosis; format: cell-based
Text: as §1, §2
(§5) The experiments were conducted in a similar fashion as shown above for examples 1 and 2. […] After incubation with fluorochrome-conjugated antibody panels that recognized: p-H2AX, p-Chk2, p-ATM, p-53, cleaved PARP and cleaved caspase 3, cells were processed for cytometry as described above.

GDM-1 cells = experiment: as above; format: cell-based
Text: as §1, §2, §5

Healthy myeloid cells = experiment: Mylotarg treatment of healthy myeloid cells (DNA damage and apoptosis); format: cell-based; conditions: at 72 h
Text: In some embodiments, the invention may identify a set of drug response signatures in disease cells. The drug response signature is a profile of the activation levels of activatable elements following in vitro exposure of patient samples to a drug and one or more modulators, and can predict whether patients may respond to the drug. […] In some embodiments, other measurements of cell viability may be used, for example cleaved caspase 3, or amount of dyes staining or other stains, for example: propidium idodide, SYTOX, TUNEL, or acridine orange. […] For review, see van Attikum H., and Gasser S. M. Trends in Cell Biology 19: pp. 207-17 (2009). ATR and ATM kinase activity in response to DNA damage activates Chk1 and Chk2, respectively. […] For review, see Abraham, R. T. Cell cycle checkpoint signaling through the ATM and ATR kinases. Genes & Dev. 15: 2177-96 (2001). […] This is also seen at earlier timepoints.

[2] = lyophilized powder; cited from earlier work
[3] = tested on: Peripheral blood mononuclear cells and bone marrow mononuclear cells derived from AML and healthy samples; experiment: Expression marker levels after Mylotarg exposure; format: cell-based
[4] = tested on: Mylotarg refractory cell lines; experiment: Mylotarg exposure and modulated signaling in resistant cell lines; format: cell-based
Protocol: as §2, §3, §4

## gemtuzumab ozogamicin [Mylotarg]
Ramos cells
  DNA damage response (levels of p-H2AX, p-p53, p-Chk2, p-ATM): does not induce changes
  proportion of populations of cells arrested in the cell cycle (p-Histone H3(S28), p-CDK1, CyclinB1): does not largely increase
Primary AML cell sample; signature 1 sample, 6 hours of exposure to Mylotarg
  CD33++ cells with induced DNA damage response, as measured by p-CHK2 and p-H2AX: approximately 60%
Primary AML cell sample; signature 1 sample, after 24 and 48 hours
  live myeloid cells becoming PARP+: 22%
Primary AML cell sample; signature 2 sample, 6 hours of exposure to Mylotarg
  CD33++ cells with induced DNA damage response, as measured by p-CHK2 and p-H2AX: approximately 80%
Primary AML cell sample; signature 2 sample, after 24 or 48 hours
  live myeloid cells becoming PARP+: 4%
Primary AML cell sample; signature 3 sample
  live myeloid cells becoming PARP+: 8%
Primary AML cell sample; signature 3 sample, 6 hours of exposure to Mylotarg
  CD33+ cells with induced DNA damage response, as measured by p-CHK2 and p-H2AX: approximately 15%
U937 cell line
  DNA damage response (levels of p-H2AX, p-Chk2, p-ATM, p-53): increased levels; also recorded: significant increase
U937 cell line; 24 hours exposure
  cell cycle arrest (Cyclin B1, p-Histone H3(S28), p-Cdk1): arrest at the G2/M checkpoint
U937 cell line; 48 hours exposure
  cell cycle arrest (Cyclin B1, p-Histone H3(S28)): arrest at the G2/M checkpoint, and a minor cell population with increased p-histone H3(S28), indicating minor arrest in M phase
[1]
  G2/M arrest: G2/M arrest
  cyclin B1 levels: increase in cyclin B1 levels; also recorded: increased cyclin B1 levels
  p-H2AX and p-Chk2: increased p-H2AX and p-Chk2 without transporter inhibitor
[1]; compared to refractory cell lines
  cell death (scatter, viability and DNA content dyes): more cell death; also recorded: increased percentage of dead cells
KG-1 cells
  DNA damage response (levels of p-H2AX, p-p53, p-Chk2, p-ATM): does not induce changes; also recorded: this was not the case
  cell cycle arrest and apoptosis after Mylotarg treatment: resistant to cell cycle arrest and apoptosis
  proportion of populations of cells arrested in the cell cycle (p-Histone H3(S28), p-CDK1, CyclinB1): does not largely increase
GDM-1 cells
  DNA damage response (levels of p-H2AX, p-p53, p-Chk2, p-ATM): does not induce changes; also recorded: this was not the case
  cell cycle arrest and apoptosis after Mylotarg treatment: resistant to cell cycle arrest and apoptosis
  proportion of populations of cells arrested in the cell cycle (p-Histone H3(S28), p-CDK1, CyclinB1): does not largely increase
Healthy myeloid cells
  cleaved PARP and apoptosis: increases in cleaved PARP and apoptosis
  levels of p-Chk2, p-H2AX, p-ATM, p-P53: increased levels
[2]
  light sensitivity of the drug product: light sensitive
[3]; exposed for 6 hours
  expression levels of the CD33 and CD13 phenotypic markers for myeloid cells: reduction
[3]; same exposure conditions
  CD11b levels: remain unchanged
[3]; twenty-four (24) hours of exposure
  CD13 levels: reduced
[4]
  G2/M arrest: failure to undergo G2/M arrest
  cell death: only modest increase in cell death
  cyclin B1 levels: failure to increase cyclin B1 levels
  p-H2AX and p-Chk2: minimal increase in p-H2AX and p-Chk2
